From PubChem BioAssay AID248 (DTP/NCI, 2004)
Several values for one entry are separate records, joined by “and”; a condition that tells them apart may be missing. Equal values may be shown once. Toxic doses and inconclusive results are not listed. Rule as the data show it: active = T/C of 150% or more; inactive = T/C below 125%.

Tested on: L1210 leukemia ip in BDF1 mice, survival T/C
Assay: NCI In Vivo Anticancer Drug Screen. Data for tumor model L1210 Leukemia (intraperitoneal) in B6D2F1 (BDF1) mice
Conditions: endpoint: mean survival time, higher = longer survival
In short: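 Value reflects the ratio of survival in compound-treated mice to survival in vehicle-treated controls, with both groups carrying the same transplanted tumor.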

[1] = dose: 75.0 mg/kg/injection, schedule: Q01DX001 (ip), vehicle: saline
[2] = dose: 100.0 mg/kg/injection, schedule: Q04DX003 (ip), vehicle: Klucel (hydroxypropylcellulose) (HPC)
[3] = dose: 150.0 mg/kg/injection, schedule: Q01DX001 (ip), vehicle: saline
[4] = dose: 200.0 mg/kg/injection, schedule: Q04DX003 (ip), vehicle: Klucel (hydroxypropylcellulose) (HPC)
[5] = dose: 300.0 mg/kg/injection, schedule: Q01DX001 (ip), vehicle: saline
[6] = dose: 400.0 mg/kg/injection, schedule: Q04DX003 (ip), vehicle: Klucel (hydroxypropylcellulose) (HPC)
[7] = dose: 100.0 mg/kg/injection, schedule: Q01DX009 (ip), vehicle: Klucel (hydroxypropylcellulose) (HPC)
[8] = dose: 200.0 mg/kg/injection, schedule: Q01DX009 (ip), vehicle: Klucel (hydroxypropylcellulose) (HPC)
[9] = dose: 100.0 mg/kg/injection, schedule: Q04DX002 (ip), vehicle: Klucel (hydroxypropylcellulose) (HPC)
[10] = dose: 200.0 mg/kg/injection, schedule: Q04DX002 (ip), vehicle: Klucel (hydroxypropylcellulose) (HPC)
[11] = dose: 400.0 mg/kg/injection, schedule: Q01DX009 (ip), vehicle: Klucel (hydroxypropylcellulose) (HPC)
[12] = dose: 100.0 mg/kg/injection, schedule: Q01DX009 (ip), vehicle: saline with Tween-80
[13] = dose: 100.0 mg/kg/injection, schedule: Q04DX003 (ip), vehicle: saline with Tween-80
[14] = dose: 200.0 mg/kg/injection, schedule: Q01DX009 (ip), vehicle: saline with Tween-80
[15] = dose: 200.0 mg/kg/injection, schedule: Q04DX003 (ip), vehicle: saline with Tween-80
[16] = dose: 400.0 mg/kg/injection, schedule: Q01DX009 (ip), vehicle: saline with Tween-80
[17] = dose: 400.0 mg/kg/injection, schedule: Q04DX003 (ip), vehicle: saline with Tween-80
[18] = dose: 25.0 mg/kg/injection, schedule: Q01DX009 (ip), vehicle: saline with Tween-80
[19] = dose: 50.0 mg/kg/injection, schedule: Q01DX009 (ip), vehicle: saline with Tween-80
[20] = dose: 100.0 mg/kg/injection, schedule: Q01DX009 (ip), vehicle: saline sonified
[21] = dose: 200.0 mg/kg/injection, schedule: Q01DX009 (ip), vehicle: saline sonified
[22] = dose: 400.0 mg/kg/injection, schedule: Q01DX009 (ip), vehicle: saline sonified

Measured: T/C

COCCN(CCOC)C(=O)Nc1cccc(Cl)c1
inactive: dose: 100.0 mg/kg/injection, schedule: Q04DX002 (ip), vehicle: saline with Tween-80 90 % of control | dose: 200.0 mg/kg/injection, schedule: Q04DX002 (ip), vehicle: saline with Tween-80 100 % of control | dose: 400.0 mg/kg/injection, schedule: Q04DX002 (ip), vehicle: saline with Tween-80 106 % of control

CC(=O)Nc1nc(NC(C)=O)c2nc(CCN(C)c3ccc(C(=O)O)cc3)cnc2n1
inactive: [1] 106 % of control | [2] 95 % of control | [3] 101 % of control | [4] 95 % of control | [5] 101 % of control | [6] 100 % of control

CC(=O)OCCC(C)Nc1ccnc2cc(Cl)ccc12 (centres undefined)
inactive: dose: 20.0 mg/kg/injection, schedule: Q04DX003 (ip), vehicle: saline with Tween-80 92 % of control | dose: 40.0 mg/kg/injection, schedule: Q04DX003 (ip), vehicle: saline with Tween-80 87 % of control

Cc1ccc(NC(=O)Sc2ccc(Cl)cc2)c([N+](=O)[O-])c1
inactive: dose: 50.0 mg/kg/injection, schedule: Q01DX009 (ip), vehicle: Klucel (hydroxypropylcellulose) (HPC) 109 % of control | [7] 98 % of control | [2] 102 % of control | [8] 106 % of control | [4] 104 % of control | [6] 109 % of control

CC(=O)NOCc1ccc([N+](=O)[O-])cc1
inactive: [2] 95 % of control | [4] 100 % of control | [6] 97 % of control

CC(C)C(=O)NCc1ccccc1
inactive: [9] 104 % of control | [10] 101 % of control | dose: 400.0 mg/kg/injection, schedule: Q04DX002 (ip), vehicle: Klucel (hydroxypropylcellulose) (HPC) 90 % of control

C=C(C)Cc1cnc(SCc2ccccc2)[nH]c1=O
inactive: [7] 93 % of control | [2] 97 % of control | [8] 91 % of control | [4] 103 % of control | [11] 94 % of control | [6] 104 % of control

CCOC(=O)c1ccc(NC(=S)Nc2ccc(C(=O)OCC)cc2)cc1
inactive: [12] 95 % of control | [13] 89 % of control | [14] 93 % of control | [15] 87 % of control | [16] 95 % of control | [17] 94 % of control

O=S(=O)(Nc1ccc(NS(=O)(=O)c2ccccc2)c(S(=O)(=O)c2ccccc2)c1)c1ccccc1
inactive: [12] 100 % of control | [14] 98 % of control | [16] 94 % of control

CCCCCCCCC(C(O)c1ccccc1)C(O)(C(F)(F)F)C(F)(F)F (centres undefined)
inactive: [12] 95 % of control | [14] 105 % of control | [16] 97 % of control

O=C(CC1C=CCC1)NCc1ccccc1 (centres undefined)
inactive: [1] 101 % of control | [3] 95 % of control | [5] 93 % of control

O=C(SCc1ccccc1)c1cccnc1
inactive: [13] 99 % of control

CCOP(=[Se])(OCC)OCC
inactive: dose: 12.5 mg/kg/injection, schedule: Q01DX009 (ip), vehicle: saline with Tween-80 91 % of control | [18] 107 % of control | [19] 88 % of control

O=[N+]([O-])c1cccc(C(O)C=C(C(F)(F)F)C(F)(F)F)c1 (centres undefined)
inactive: [18] 100 % of control | [19] 98 % of control | [12] 98 % of control | [13] 103 % of control

O=C(O)CC(Sc1ccccc1)C(=O)O (centres undefined)
inactive: dose: 100.0 mg/kg/injection, schedule: Q04DX002 (ip), vehicle: saline + alcohol 99 % of control | dose: 200.0 mg/kg/injection, schedule: Q04DX002 (ip), vehicle: saline + alcohol 102 % of control | dose: 400.0 mg/kg/injection, schedule: Q04DX002 (ip), vehicle: saline + alcohol 99 % of control

O=C(O)CCNc1ccc(Cl)cc1[N+](=O)[O-]
inactive: [9] 97 % of control | [10] 120 % of control

O=C(CCCC(=O)N=Nc1c(Cl)c(O)c2ccccc2c1O)N=Nc1c(Cl)c(O)c2ccccc2c1O
inactive: dose: 100.0 mg/kg/injection, schedule: Q01DX001 (ip), vehicle: carboxymethylcellulose (CMC) 118 % of control | dose: 200.0 mg/kg/injection, schedule: Q01DX001 (ip), vehicle: carboxymethylcellulose (CMC) 101 % of control | dose: 400.0 mg/kg/injection, schedule: Q01DX001 (ip), vehicle: carboxymethylcellulose (CMC) 103 % of control

CCCCc1ccc(OCCBr)cc1
inactive: [20] 102 % of control | [2] 95 % of control | [21] 98 % of control | [4] 103 % of control | [22] 95 % of control | [6] 101 % of control

COC1C2CCC1[N+](C)(C)CC2 (centres undefined)
inactive: dose: 25.0 mg/kg/injection, schedule: Q01DX009 (ip), vehicle: saline 101 % of control | dose: 50.0 mg/kg/injection, schedule: Q01DX009 (ip), vehicle: saline 105 % of control | dose: 100.0 mg/kg/injection, schedule: Q01DX009 (ip), vehicle: saline 107 % of control and 110 % of control

CC(=O)OCC(OC(C)=O)C(OC(C)=O)C(OC(C)=O)C(COC(=O)c1ccccc1)OC(=O)c1ccccc1 (centres undefined)
inactive: dose: 100.0 mg/kg/injection, schedule: Q01DX001 (ip), vehicle: saline with Tween-80 108 % of control | dose: 200.0 mg/kg/injection, schedule: Q01DX001 (ip), vehicle: saline with Tween-80 89 % of control | dose: 400.0 mg/kg/injection, schedule: Q01DX001 (ip), vehicle: saline with Tween-80 104 % of control

O=[N+]([O-])c1ccc(-c2cnc(Br)c3ccccc23)cc1
inactive: dose: 25.0 mg/kg/injection, schedule: Q04DX003 (ip), vehicle: DMSO 96 % of control | dose: 50.0 mg/kg/injection, schedule: Q04DX003 (ip), vehicle: DMSO 93 % of control | dose: 100.0 mg/kg/injection, schedule: Q04DX003 (ip), vehicle: DMSO 93 % of control | dose: 200.0 mg/kg/injection, schedule: Q04DX003 (ip), vehicle: DMSO 93 % of control | dose: 400.0 mg/kg/injection, schedule: Q04DX003 (ip), vehicle: DMSO 93 % of control

CSc1ncc(COC(C)=O)c(N)n1
inactive: dose: 100.0 mg/kg/injection, schedule: Q01DX001 (ip), vehicle: Klucel (hydroxypropylcellulose) (HPC) 97 % of control | [7] 102 % of control | dose: 200.0 mg/kg/injection, schedule: Q01DX001 (ip), vehicle: Klucel (hydroxypropylcellulose) (HPC) 99 % of control | [8] 96 % of control | dose: 400.0 mg/kg/injection, schedule: Q01DX001 (ip), vehicle: Klucel (hydroxypropylcellulose) (HPC) 92 % of control | [11] 104 % of control

COc1ccccc1-n1c(=O)c(N=Nc2ccccc2C)c(O)n(-c2ccccc2C)c1=S
inactive: dose: 37.5 mg/kg/injection, schedule: Q01DX001 (ip), vehicle: Klucel (hydroxypropylcellulose) (HPC) 106 % of control | dose: 75.0 mg/kg/injection, schedule: Q01DX001 (ip), vehicle: Klucel (hydroxypropylcellulose) (HPC) 106 % of control | dose: 150.0 mg/kg/injection, schedule: Q01DX001 (ip), vehicle: Klucel (hydroxypropylcellulose) (HPC) 108 % of control

CCCCN(CCCC)C(=O)CCC
inactive: dose: 100.0 mg/kg/injection, schedule: Q04DX003 (ip), vehicle: saline 102 % of control | dose: 200.0 mg/kg/injection, schedule: Q04DX003 (ip), vehicle: saline 95 % of control

CCCCCCCCCCCCCCCCCC(=O)OCCCCCCCCCCCCC
inactive: [20] 88 % of control | [13] 100 % of control | [21] 95 % of control | [15] 92 % of control | [22] 91 % of control | [17] 86 % of control

Fc1cc(N(CCCl)CCCl)ccc1CNCCCNCc1ccc(N(CCCl)CCCl)cc1F
inactive: dose: 50.0 mg/kg/injection, schedule: Q01DX001 (ip), vehicle: carboxymethylcellulose (CMC) 93 % of control

COCCOC(=O)c1ccc(C(N)=NC2CCCCC2)cc1
inactive: dose: 100.0 mg/kg/injection, schedule: Q01DX001 (ip), vehicle: saline 96 % of control | dose: 200.0 mg/kg/injection, schedule: Q01DX001 (ip), vehicle: saline 97 % of control

c1ccc2n[se]nc2c1
inactive: dose: 12.5 mg/kg/injection, schedule: Q04DX003 (ip), vehicle: saline 86 % of control | dose: 25.0 mg/kg/injection, schedule: Q04DX003 (ip), vehicle: saline 103 % of control
